# In patent US12391712B2, “Phosphate derivatives of RORgamma modulators and uses thereof” (GENFIT, priority 2019, dated 2025):
# Experiments:
# [1] = Solubility in phosphate buffer pH=7.4; format: physicochemical; conditions: for solubility at 24 h: aqueous buffer, thermodynamic from solid; for Solubility ratio: phosphate derivative / unphosphated counterpart; for Solubility ratio / fold more soluble compared to unphosphated analogue: phosphate buffer pH=7.4
# Procedure: General procedure: The test compound was solubilized in phosphate buffer pH=7.4 at a given concentration (test concentration). The mixture was maintained under vigorous stirring for 24 hours at room temperature. In case a insoluble solid appeared, it was removed by centrifugation and the concentration of the test compound in the solution was determined by LC-MS/MS using appropriate methods.
# [2] = Stability in water at room temperature; format: physicochemical; conditions: 5 mg/mL in water
# Procedure: General procedure: compound 2 (Cpd. 2) according to the invention was dissolved in water in order to obtain a 5 mg/mL concentration. The solution was stirred for 7 days at room temperature. Compound 2 was quantified at different time points (0, 5 days and 7 days) by UPLC/MS using appropriate method.
# Results are expressed as percentage of initial signal area for Cpd.2 (time point (1-day).
# [3] = Metabolic stability (hydrolysis) in bronchoalveolar lavage fluid; format: in vitro ADME, human
# Procedure: General procedure: human bronchoalveolar lavage fluid (hBALf) was purchased from BiolVT. Sample was collected from an individual donor. The only known information provided for the donor were age and gender. Information regarding the health status of the donor was not known.
# The hydrolysis of compound 2 was tested at the concentration of 1 μM and 10 μM for 120 minutes (time points 5, 15, 30, 60 and 120 minutes). Quantification of the compound was then carried out by LC-MS/MS using appropriate methods.
# [4] = phosphate buffer pH=7.4, stirring 24 hours at room temperature, LC-MS/MS
"solubility at 24 h [1, 4]",Solubility ratio [1],SMILES,other results
3.7 µg/mL,,"COc1ccc(C(NC(=O)C2(c3ccc4[nH]cc(CCO)c4c3)CC2)c2ccccc2)c(C)c1 (centres unmarked) [Ex.5a, 1-[3-(2-hydroxyethyl)-1H-indol-5-yl]-N-[(4-methoxy-2-methylphenyl)(phenyl)methyl]cyclopropane-1-carboxamide]",
0.1 µg/mL,,"Cc1ccc(C(NC(=O)C2(c3ccc4[nH]cc(CCO)c4c3)CC2)c2cccc(Cl)c2)c(C)c1 (centres unmarked) [Ex.4a, N-[(3-chlorophenyl)(2,4-dimethylphenyl)methyl]-1-[3-(2-hydroxyethyl)-1H-indol-5-yl]cyclopropane-1-carboxamide]",
3640 µg/mL,52 057,"Cc1ccc(C(NC(=O)C2(c3ccc4[nH]cc(CCOP(=O)([O-])[O-])c4c3)CC2)c2ccccc2)c(N2CCOCC2)c1.[Na+].[Na+] (centres unmarked) [Cpd.16, disodium 2-{5-[1-({[4-methyl-2-(morpholin-4-yl)phenyl](phenyl)methyl}carbamoyl)cyclopropyl]-1H-indol-3-yl}ethyl phosphate]",
78.3 µg/mL,,"Cc1noc(C)c1C(NC(=O)C1(c2ccc3[nH]cc(CCO)c3c2)CC1)c1ccccc1 (centres unmarked) [Ex.9d, N-[(dimethyl-1,2-oxazol-4-yl)(phenyl)methyl]-1-[3-(2-hydroxyethyl)-1H-indol-5-yl]cyclopropane-1-carboxamide]",
11.9 µg/mL,,"Cc1ccc(C(NC(=O)C2(c3ccc4[nH]cc(CCO)c4c3)CC2)C2CC2)c(C)c1 (centres unmarked) [Ex.7a, N-[cyclopropyl(2,4-dimethylphenyl)methyl]-1-[3-(2-hydroxyethyl)-1H-indol-5-yl]cyclopropane-1-carboxamide]",
> 10000 µg/mL,≥100 000,"Cc1ccc(C(NC(=O)C2(c3ccc4[nH]cc(CCOP(=O)([O-])[O-])c4c3)CC2)c2cccc(Cl)c2)c(C)c1.[Na+].[Na+] (centres unmarked) [Cpd.8, disodium 2-[5-(1-{[(3-chlorophenyl)(2,4-dimethylphenyl)methyl]carbamoyl}cyclopropyl)-1H-indol-3-yl]ethyl phosphate]",fold more soluble compared to unphosphated analogue [1]: more than 100 000 fold
1.6 µg/mL,,"COc1cc(C)ccc1C(NC(=O)C1(c2ccc3[nH]cc(CCO)c3c2)CC1)c1ccccc1 (centres unmarked) [Ex.2a, 1-[3-(2-hydroxyethyl)-1H-indol-5-yl]-N-[(2-methoxy-4-methylphenyl)(phenyl)methyl]cyclopropane-1-carboxamide]",
5.2 µg/mL,,"Cc1ccc(C(NC(=O)C2(c3ccc4[nH]cc(CCO)c4c3)CC2)c2cccc(C)n2)c(C)c1 (centres unmarked) [Ex.3a, N-[(2,4-dimethylphenyl)(6-methylpyridin-2-yl)methyl]-1-[3-(2-hydroxyethyl)-1H-indol-5-yl]cyclo-propane-1-carboxamide]",
> 50400 µg/mL,≥13513,"COc1ccc(C(NC(=O)C2(c3ccc4[nH]cc(CCOP(=O)([O-])[O-])c4c3)CC2)c2ccccc2)c(C)c1.[Na+].[Na+] (centres unmarked) [Cpd.10, disodium 2-[5-(1-{[(4-methoxy-2-methylphenyl)(phenyl)methyl]carbamoyl}cyclopropyl)-1H-indol-3-yl]ethyl phosphate]",

# The next lines start with the compound.
SMILES,"solubility at 24 h [1, 4]",Solubility ratio [1],other results
"Cc1ccc(C(NC(=O)C2(c3ccc4[nH]cc(CCOP(=O)([O-])[O-])c4c3)CC2)C2CC2)c(C)c1.[Na+].[Na+] (centres unmarked) [Cpd.14, disodium 2-[5-(1-{[cyclopropyl(2,4-dimethylphenyl)methyl]carbamoyl}cyclopropyl)-1H-indol-3-yl]ethyl phosphate]",> 70800 µg/mL,≥5 949,
"Cc1ccc(C(NC(=O)C2(c3ccc4[nH]cc(CCO)c4c3)CC2)c2ccccc2)c(N2CCOCC2)c1 (centres unmarked) [Ex.8a, 1-[3-(2-hydroxyethyl)-1H-indol-5-yl]-N-{[4-methyl-2-(morpholin-4-yl)phenyl](phenyl)methyl}cyclopropane-1-carboxamide]",0.07 µg/mL,,
"Cc1noc(C)c1C(NC(=O)C1(c2ccc3[nH]cc(CCOP(=O)([O-])[O-])c3c2)CC1)c1ccccc1.[Na+].[Na+] (centres unmarked) [Cpd.18, disodium 2-[5-(1-{[(dimethyl-1,2-oxazol-4-yl) (phenyl)methyl]carbamoyl}cyclopropyl)-1H-indol-3-yl] ethyl phosphate]",,≥911,"Solubility [1, 4]: >71350 µg/mL"
"Cc1ccc(C(NC(=O)C2(c3ccc4[nH]cc(CCOP(=O)([O-])[O-])c4c3)CC2)c2ccc(C)o2)c(C)c1.[Na+].[Na+] (centres unmarked) [Cpd.2, disodium 2-[5-(1-{[(2,4-dimethylphenyl)(5-methylfuran-2-yl)methyl]carbamoyl}cyclopropyl)-1H-indol-3-yl]ethyl phosphate]",143000 µg/mL,1 588,"fold more soluble compared to unphosphated analogue [1]: at least 1500 fold; percentage of initial signal area for Cpd.2 (stability in water) ([2]; time point 0 days): 100%; percentage of initial signal area for Cpd.2 (stability in water) ([2]; time point 5 days): 98%; percentage of initial signal area for Cpd.2 (stability in water) ([2]; time point 7 days): 98%; Cpd.2 quantification in hBALf, percentage of initial signal area ([3]; 1 μM, time point 0 min): 100%; Cpd.2 quantification in hBALf, percentage of initial signal area ([3]; 1 μM, time point 5 min): 16.46%; Cpd.2 quantification in hBALf, percentage of initial signal area ([3]; 1 μM, time point 15 min): 1.84%; Cpd.2 quantification in hBALf, percentage of initial signal area ([3]; 1 μM, time point 30 min): 0.57%; Cpd.2 quantification in hBALf, percentage of initial signal area ([3]; 1 μM, time point 60 min): 0.28%; Cpd.2 quantification in hBALf, percentage of initial signal area ([3]; 1 μM, time point 120 min): 0.19%; Cpd.2 quantification in hBALf, percentage of initial signal area ([3]; 10 μM, time point 0 min): 100%; Cpd.2 quantification in hBALf, percentage of initial signal area ([3]; 10 μM, time point 5 min): 14.98%; Cpd.2 quantification in hBALf, percentage of initial signal area ([3]; 10 μM, time point 15 min): 4.27%; Cpd.2 quantification in hBALf, percentage of initial signal area ([3]; 10 μM, time point 30 min): 1.38%; Cpd.2 quantification in hBALf, percentage of initial signal area ([3]; 10 μM, time point 60 min): 0.49%; Cpd.2 quantification in hBALf, percentage of initial signal area ([3]; 10 μM, time point 120 min): 0.25%"
"COc1cc(C)ccc1C(NC(=O)C1(c2ccc3[nH]cc(CCOP(=O)([O-])[O-])c3c2)CC1)c1ccccc1.[Na+].[Na+] (centres unmarked) [Cpd.4, disodium 2-[5-(1-{[(2-methoxy-4-methylphenyl)(phenyl)methyl]carbamoyl}cyclopropyl)-1H-indol-3-yl]ethyl phosphate]",11200 µg/mL,7 000,
"Cc1ccc(C(NC(=O)C2(c3ccc4[nH]cc(CCO)c4c3)CC2)c2ccc(C)o2)c(C)c1 (centres unmarked) [Cpd.A, N-[(2,4-dimethylphenyl)(5-methylfuran-2-yl)methyl]-1-[3-(2-hydroxyethyl)-1H-indol-5-yl]cyclopropane-1-carboxamide, reference compound]",90 µg/mL,,
"Cc1ccc(C(NC(=O)C2(c3ccc4[nH]cc(CCOP(=O)(O)O)c4c3)CC2)c2cccc(C)n2)c(C)c1.[Na].[Na] (centres unmarked) [Cpd.6, disodium {2-[5-(1-{[(2,4-dimethyl phenyl)(6-methylpyridin-2-yl)methyl]carbamoyl}cyclopropyl)-1H-indol-3-yl]ethoxy} phosphonic acid]",> 62700 µg/mL,≥12 000,
